Calls of active or inactive are those of the source. No cut-off for these calls is given here.

Common to all, as to assay type: functional, organism-based
For one assay, the system named is Kocuria rosea. The assay is described as follows: Antimicrobial activity against Micrococcus roseus Flugge 1886 by Kirby and Baur method.
In the next assay the test system is Streptococcus sp. The assay is described as follows: Antimicrobial activity against Streptococcus sp. Rosenbach 1884 by Kirby and Baur method.
Another assay concerns Salmonella typhi. The assay can be described thus: Antimicrobial activity against Salmonella typhi Zopf 1884 by Kirby and Baur method. The note with it: Salmonella enterica subsp. enterica serovar Typhi.
A further assay concerns Providencia rettgeri. The assay can be described thus: Antimicrobial activity against Proteus rettgeri Hadley 1918 by Kirby and Baur method.
Another assay relates to Klebsiella aerogenes. The assay is described as follows: Antimicrobial activity against Enterobacter aerogenes Kruse 1896 by Kirby and Baur method.
In another assay the test system is Candida. The assay is described as follows: Antimicrobial activity against Candida sp. Berkhout by Kirby and Baur method.
A further assay concerns Staphylococcus aureus. The assay can be described thus: Antimicrobial activity against Staphylococcus aureus Rosenbach 1884 by Kirby and Baur method.
A further assay relates to Escherichia coli. The assay can be described thus: Antimicrobial activity against Escherichia coli Migula 1895 by Kirby and Baur method.

In the case of `C=C1CCC2CC1C(C)(C)CC(O)/C=C\2C` (stereo not drawn), the outcome with Kocuria rosea, in the assay on Streptococcus sp., with Salmonella typhi, in the assay with Providencia rettgeri, with Klebsiella aerogenes and in the assay with Candida was inactive. In addition, the result with Escherichia coli was inactive. Moreover, in the assay with Staphylococcus aureus, the result was Active.
